For one experiment, the target named is T1, rDdGSTA3 (Dictyostelium discoideum, UniProt Q54VI4).
T1 construct: gene gsta3
T1 sequence (Q54VI4 1-204): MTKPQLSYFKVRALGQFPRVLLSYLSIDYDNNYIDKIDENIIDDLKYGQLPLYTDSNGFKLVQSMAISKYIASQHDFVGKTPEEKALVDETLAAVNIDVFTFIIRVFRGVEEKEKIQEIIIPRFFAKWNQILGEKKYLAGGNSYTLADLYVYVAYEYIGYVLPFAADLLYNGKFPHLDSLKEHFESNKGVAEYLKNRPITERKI
Kind of experiment: CDNB conjugation, absorbance at […] nm, Michaelis-Menten fit. The experiment is classed as biochemical. The conditions noted are these: saturating GSH; pH 7.5; 25°C.

The target of another experiment is T2, rDdGSTA2 (Dictyostelium discoideum, UniProt Q556G3).
T2 construct: gene gsta2-1
T2 sequence (Q556G3 1-198): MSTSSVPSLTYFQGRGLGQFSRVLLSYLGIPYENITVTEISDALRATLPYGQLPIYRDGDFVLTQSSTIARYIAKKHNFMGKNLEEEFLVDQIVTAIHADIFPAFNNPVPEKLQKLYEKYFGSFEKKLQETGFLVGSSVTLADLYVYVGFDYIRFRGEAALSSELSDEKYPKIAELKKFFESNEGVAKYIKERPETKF
Described as above. It counts as biochemical. The conditions noted are these: saturating GSH; pH 7.5; 25°C.

For the molecule `O=[N+]([O-])c1ccc(Cl)c([N+](=O)[O-])c1` [CDNB, 1-chloro-2,4-dinitrobenzene], the results for the Km at rDdGSTA3 and at rDdGSTA2 were 562 ± 98.1 µM and 1290 ± 200 µM, respectively.

These data come from publication PMC8081208, “Characterization of glutathione S-transferase enzymes in Dictyostelium discoideum suggests a functional role for the GSTA2 isozyme in cell proliferation and development” (PLoS ONE, 2021).
